# Measurements from patent US20070173529A1, “Sulfated bis-cyclic agents” (priority 2003, published 2007).
# Columns and labels:
# [1] = system: T1, human plasma factor Xa (Homo sapiens); assay: Antithrombin-dependent factor Xa inhibition (residual factor Xa activity, Spectrozyme fXa substrate); assay type: biochemical; conditions: 10 μM sulfated compound; 1 μM human plasma antithrombin, 10 nM human plasma factor Xa, pH 6.0, 25° C., 10 min
# T1 construct: 10 nM human plasma factor Xa; from tissue; host or cells: human plasma
# T1 sequence (P01008 33-464): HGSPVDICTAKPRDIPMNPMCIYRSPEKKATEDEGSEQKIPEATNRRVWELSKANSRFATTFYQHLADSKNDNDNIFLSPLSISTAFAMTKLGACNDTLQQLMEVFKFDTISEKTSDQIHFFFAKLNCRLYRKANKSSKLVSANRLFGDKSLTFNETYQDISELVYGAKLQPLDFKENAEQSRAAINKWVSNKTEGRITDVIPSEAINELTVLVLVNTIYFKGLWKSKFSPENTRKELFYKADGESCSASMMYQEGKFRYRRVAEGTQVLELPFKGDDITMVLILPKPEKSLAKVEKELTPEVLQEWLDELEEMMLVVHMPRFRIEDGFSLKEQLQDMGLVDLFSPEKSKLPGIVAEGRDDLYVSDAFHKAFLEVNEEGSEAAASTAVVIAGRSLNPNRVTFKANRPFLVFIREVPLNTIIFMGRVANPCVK
# Procedure: (§1) Methods. To assay anticoagulant activity, compounds were incubated with 1 μM human plasma antithrombin and 10 nM human plasma factor Xa in 20 mM sodium phosphate buffer, pH 6.0, at 25° C. for 10 min. After incubation, residual factor Xa activity was measured spectrophotometrically using Spectrozyme fXa substrate. From the decrease in residual factor Xa activity as a function of sulfated bis-cyclic agent concentration, the anticoagulant potential of each sample was calculated.
# (§2) A key test of in vitro anticoagulant activity is the inhibition of Factor Xa., a critical enzyme involved in blood clotting.
# (§3) Each peak was isolated and its factor Xa inhibition potential was determined at concentrations in the range of 1-50 μM.
# human plasma factor Xa = biological target: T2, human plasma factor Xa (Homo sapiens, UniProt P01008); assay: as above; assay type: biochemical; conditions: tested at 1-50 μM
# T2 construct: 10 nM human plasma factor Xa; from tissue; host or cells: human plasma
# T2 sequence (P01008 33-464): as above
# Procedure: as §1, §2, §3
substance,measurement,setting,value
"(3S)-6,7-bis-sulfonato-2-(3,4,5-tris-sulfonato-benzoyl)-1,2,3,4-tetrahydro-isoquinoline-3-carboxylate [Peak P1]",Inhibition (Factor Xa inhibition by sulfated compounds),[1],86%
same,acceleration of the inhibition of human factor Xa by human plasma antithrombin,human plasma factor Xa,greatly accelerates the inhibition
